Tests used:
lung ILC2s [1] = test: Flow cytometry of proliferation, transcription factor and signalling markers in lung ILC2s; format: cell-based, mouse
Text: (§1) FIGS. 5A-5F: Cholinergic signal attenuates ILC2 proliferation and GATA3 expression. (FIG. 5A) Mean fluorescence intensity of Ki67 and percentage of Ki67+ cells in isolated lung ILC2s, stimulated with IL-33 in the absence and presence of α7nAChR. (FIG. 5B) Mean fluorescence intensity of GATA3 in isolated lung ILC2s, stimulated with IL-33 in the absence and presence of α7nAChR. One representative experiment of two is shown (n=5; Student's t test *, p<0.05; **, p<0.01; ***p<0.001). […] FACS-purified ILC2s from WT mice challenged with rm-IL-33 with or without α7nAChR agonist as described in FIG. 3A were quantified by NanoString nCounter technology. Data range from −1 to +1 for the most reduced and most increased gene expression, respectively. (FIG. 5D) Expression of NF-κB p65 in isolated lung ILC2s from mice challenged with IL-33 with (dotted line) or without (thick line) α7nAChR agonist. The level of isotype-matched stain control is shown as a gray-filled histogram. (FIG. 5E) Expression of phosphorylated IKKα/β (Ser176/180) in isolated lung ILC2s stimulated with IL-33, with (dotted line) or without (thick line) α7nAChR agonist for 24 hours. The level of isotype-matched stain control is shown as a gray-filled histogram. (FIG. 5F) Mean fluorescence intensity of phosphorylated IKKα/β with or without α7nAChR agonist.
FIGS. 9A-9C: Effect of α7nAChR agonist on some marker expressions by ILC2s. A cohort of BALB/cByJ mice were intranasally challenged with rm-IL-33 (0.5 μg) with or without α7nAChR agonist (125 μg) for three consecutive days. Histogram and MFI of CD25 (FIG. 9A), CD127 (FIG. 9B) and ST2 (FIG. 9C) in isolated lung ILC2s. Data are representative of at least two independent experiments and are presented as means±SEM (n=4; Student's t test *, p<0.05).
Biotinylated anti-mouse lineage (CD3e (145-2C11), CD45R (RA3-3B2), Gr-1 (RB6-8C5), CD11c (N418), CD11b (M1/70), Ter119 (TER-119), NK1.1 (PK136), TCR-β (H57-597), TCR-γδ (GL3), and FcεRIα (MAR-1), Streptavidin-FITC, FITC anti-mouse CD3 (145-2C11), BV510 anti-mouse CD4 (RM4-5), APC-Cy7 anti-mouse CD25 (PC61), PE anti-mouse CD25 (PC61), BV421 anti-mouse CD25 (PC61), BV510 anti-mouse CD90.2 (53-2.1), APC anti-mouse CD127 (A7R34), PE-Cy7 anti-mouse CD127 (A7R34), FITC anti-mouse CD45 (30F-11), PE/Cy7 anti-mouse CD45 (30-F11), PE anti-mouse IL-5 (TRFK5), BV421 anti-mouse GATA3 (16E10A23), 7-AAD Viability staining solution, purchased from BioLegend (San Diego, Calif.). PE anti-mouse ST2 (IL-33R, RMST2-2), PerCP-eFluor710 anti-Mouse ST2 (RMST2-2), Streptavidin APC-eFluor780, Alexa Fluor647 labeled anti-IL-4 (clone 11B11), eFluor 450 anti-mouse CD45 (30F-11), eFluor450 anti-CD44 (clone IM7), eFluor-660 anti-mouse Ki-67 (SollA15), PE/Cy7 anti-mouse IL-13 (eBio13A), anti-mouse BCL-2 (10C4), were purchased from eBioscience. Alexa Fluor 488 anti-mouse p65-NF-κB (532301) was purchased from R&D Systems (dilution 1:50). Alexa Fluor 647 conjugated α-bungarotoxin (Invitrogen, San Diego, Calif.). PE anti-mouse Phospho-IKKα/β (Ser 176/180) (16A6) was purchased from Cell Signaling Technology (dilution 1:50). PE anti-rat α7nAChR (319) was purchased from Santa Cruz Biotechnology (dilution 1:50). This antibody has been used to identify this receptor previously in several studies^69. Lineage marker antibodies were used at the dilution of 1:400, unless mentioned otherwise other antibodies were used at the dilution of 1:200.
Intracellular staining was performed using BD Cytofix/Cytoperm kit (BD Bioscience, San Jose, Calif.) according to the manufacturer's instructions. For analysis of GATA3 and Ki-67 expression, freshly isolated cells were fixed and permeabilized using Fixation/Permeabilization buffer kit (eBioscience) according to the manufacturer's instructions and as previously described^70.

lung ILC2s [2] = test: Gene expression analysis of ILC2s with NanoString nCounter technology; format: cell-based, mouse; conditions: ILC2s from rm-IL-33 challenged mice with or without agonist
Text: as §1
Next, to investigate the molecular mechanism of α7nAChR agonist-mediated anti-inflammatory effects, Applicants analyzed the gene expression profile of ILC2s with or without α7nAChR agonist treatment by NanoString technology as described in the methods. […] Applicants further confirmed by flow cytometry that α7nAChR agonist reduced NF-κB p65 expression in ILC2s (FIG. 5D). To better establish the underlying mechanisms, Applicants explored the signaling pathway upstream of NF-κB by measuring the activated form of IKKα/β, which is phosphorylated on serine residues 176 and 180. Consistent with our previous results shown in FIG. 5D, α7nAChR agonist reduced phosphorylated IKKα/β expression in ILC2s (FIGS. 5E-5F). NF-κB and STAT-6 are both critical for GATA-3 transcription. The inhibition of GATA-3 expression results in a down-regulation of IL-5, IL-9 and IL-13 secretion from ILC2s.
The difference in the abundance of scripts between ILC2s purified from rm-IL33 administered mice with or without α7nAChR agonist were analyzed with NanoString nCounter technology. Heat plots were generated with R statistical software.

expression of STAT-5a, STAT-5b, and IL-2 receptors (IL-2/IL-7 signaling panel) (lung ILC2s [2]): relatively unaffected
SMILES: COc1ccc(/C=C2\CCCN=C2c2cccnc2)c(OC)c1 [GTS-21, 3-[(3E)-3-[(2,4-dimethoxyphenyl)methylidene]-5,6-dihydro-4H-pyridin-2-yl]pyridine]
expression of anti-apoptotic factor Bcl-2 on ILC2s (lung ILC2s [1]; in vivo data): unaffected
GATA-3 expression in ILC2s (lung ILC2s [1]; isolated lung ILC2s, IL-33): significantly inhibits
proliferation rate of pulmonary ILC2s (Ki-67 levels) (lung ILC2s [1]; isolated lung ILC2s, IL-33): significantly decreased
NF-κB p65 expression in ILC2s (lung ILC2s [1]; lung ILC2s from mice challenged with IL-33): reduced
phosphorylated IKKα/β (Ser176/180) expression in ILC2s (lung ILC2s [1]; lung ILC2s stimulated with IL-33, 24 hours): reduced
RelA expression (lung ILC2s [2]): unaffected
expression at the mRNA level of NF-κB1 (lung ILC2s [2]): decrease
expression of GATA-3, STAT-6, NF-κB, IL-5, IL-9 and IL-13 (IL-33/IL-25 signaling pathway genes) (lung ILC2s [2]): inhibited
factors associated with apoptosis (Casp3, Casp8, Bcl-2) (lung ILC2s [2]): did not activate

Reference: patent publication US20190247376A1, “NICOTINIC ACETYLCHOLINE RECEPTOR AGONIST ATTENUATES ILC2-DEPENDENT AIRWAY HYPERREACTIVITY” (University of Southern California, priority 2016, published 2019)
